3 compounds from paper PMC3478134 (Cancer cell, 2012) can be followed below.

The test system of series [1] is ANBL-6.BR cells. In words: Cell viability, ANBL-6.BR. The format is cell-based.
Series [2] relates to ANBL-6.WT cells. Description: Cell viability, ANBL-6.WT. The format is cell-based.
The target of series [3] is USP5 (Homo sapiens, UniProt P45974). In words: DUB inhibition in cells. The format is cell-based. The note with it: Fig S1A.
For series [4], the system named is HDM2, HDMX, p53, p21. Description: Immunoblot of HDM2/HDMX/p53/p21 in MM.1S and RPMI-8226 cells. The note with it: 6.25 and 12.5 μM, 24 hr. The format is cell-based, human. Background: In western blotting, separated proteins are transferred to a membrane and probed.
The target in series [5] is T1, USP7 (Homo sapiens, UniProt Q93009). Description: Cellular USP7 activity in MM.1S cells, Ub-EKL assay after immunoprecipitation. The format is cell-based. The conditions noted are these: 3 hr, concentration-dependent.
T1 sequence (Q93009 whole entry): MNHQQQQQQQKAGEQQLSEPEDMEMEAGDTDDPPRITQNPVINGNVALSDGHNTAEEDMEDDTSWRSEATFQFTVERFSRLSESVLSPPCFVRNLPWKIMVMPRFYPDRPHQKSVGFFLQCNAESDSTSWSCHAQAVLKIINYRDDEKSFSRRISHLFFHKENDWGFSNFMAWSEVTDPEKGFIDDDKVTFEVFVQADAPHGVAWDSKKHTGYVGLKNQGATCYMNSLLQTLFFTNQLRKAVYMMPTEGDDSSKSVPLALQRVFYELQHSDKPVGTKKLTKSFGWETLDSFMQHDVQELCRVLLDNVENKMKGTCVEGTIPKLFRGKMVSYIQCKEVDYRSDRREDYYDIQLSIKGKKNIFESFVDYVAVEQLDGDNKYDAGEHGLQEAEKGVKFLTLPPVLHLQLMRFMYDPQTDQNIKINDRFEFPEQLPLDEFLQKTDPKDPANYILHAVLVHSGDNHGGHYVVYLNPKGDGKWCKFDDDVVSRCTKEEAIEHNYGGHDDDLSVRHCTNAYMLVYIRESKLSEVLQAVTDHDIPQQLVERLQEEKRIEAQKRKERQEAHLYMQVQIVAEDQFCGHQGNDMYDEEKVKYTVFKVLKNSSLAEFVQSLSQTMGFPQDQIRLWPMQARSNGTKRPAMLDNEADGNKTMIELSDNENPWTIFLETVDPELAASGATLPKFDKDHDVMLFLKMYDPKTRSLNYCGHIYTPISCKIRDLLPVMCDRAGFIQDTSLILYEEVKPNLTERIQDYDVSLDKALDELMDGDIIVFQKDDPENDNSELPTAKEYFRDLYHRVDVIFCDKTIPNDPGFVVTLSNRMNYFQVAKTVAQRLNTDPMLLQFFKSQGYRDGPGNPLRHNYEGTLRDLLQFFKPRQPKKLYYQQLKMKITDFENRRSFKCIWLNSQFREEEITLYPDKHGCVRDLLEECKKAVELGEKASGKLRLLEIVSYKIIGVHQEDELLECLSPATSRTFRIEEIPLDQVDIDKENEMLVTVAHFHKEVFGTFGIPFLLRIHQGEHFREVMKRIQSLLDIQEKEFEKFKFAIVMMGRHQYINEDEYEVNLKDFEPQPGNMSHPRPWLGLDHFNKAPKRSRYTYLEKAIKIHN
For series [6], the system named is purified patient MM cells. Description: Purified patient MM cell viability. The format is cell-based, human. The conditions noted are these: 8 MM patients, 48 hr.
Series [7] deals with MM.1S cells. Description: Viability of scr- or HDM2-siRNA transfected MM.1S cells. It counts as cell-based, human. The conditions noted are these: 24 hr.
Series [8] deals with MM.1S cells. Description: Viability of scr- or p53-siRNA transfected MM.1S cells. The format is cell-based, human. The note with it: 48 hr.
For series [9], the system named is MM.1S cells. In words: Viability of scr- or p21-siRNA transfected MM.1S cells. It counts as cell-based, human. The note with it: 48 hr.
The test system of series [10] is proteasome. In words: Proteasome activity in MM.1S cells. The format is cell-based, human. The note with it: for Chymotrypsin-like (CT-L) proteasome activity: MM.1S cells, 3 hr.
Series [11] has as its target T1, USP7. Description: Ub-PLA2 isopeptidase reporter assay, USP7. The format is biochemical. The note with it: for USP7 inhibitory activity (SAR): Fig 1C/1D.
Series [12] relates to p53^−/− MEFs. In words: Viability, p53^−/− MEFs. It counts as cell-based, mouse. The note with it: 48 hr.
Series [13] deals with CCRF-CEM leukemic tumors. In words: CCRF-CEM leukemic xenograft. The conditions noted are these: 10 mg/kg twice weekly for 3 weeks.
The subject of series [14] is MM cells. Description: Apoptosis. The conditions noted are these: Fig S3E. The format is cell-based, human.
The test system of series [15] is MM.1S MM tumors. In words: Human MM.1S plasmacytoma xenograft. For orientation: Xenograft models place foreign cells or tissue in a host animal.
For series [16], the system named is MM.1S cells cultured with BMSCs. Description: MM.1S proliferation with BMSCs, 3H-TdR uptake. The conditions noted are these: 72 hr. It counts as cell-based, human.
The conditions of series [17]: mouse, in vivo.
In series [18] the test system is HCT116 p21^−/− cells. The note with it: 48 hr, versus HCT116 (WT).
The target of series [19] is UCHL1 (Homo sapiens, UniProt P09936). Description: DUB inhibition in cells. The format is cell-based. The conditions noted are these: Fig S1A.
Sequence of UCHL1 (P09936 whole entry): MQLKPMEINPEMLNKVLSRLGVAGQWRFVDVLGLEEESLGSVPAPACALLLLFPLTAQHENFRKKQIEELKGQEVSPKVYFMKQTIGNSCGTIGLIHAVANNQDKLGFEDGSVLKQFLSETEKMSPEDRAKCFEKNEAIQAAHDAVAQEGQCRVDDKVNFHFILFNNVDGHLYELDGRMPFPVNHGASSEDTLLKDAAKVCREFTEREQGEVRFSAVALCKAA
Series [20] can be described thus: Tolerability in tumor-bearing mice. The conditions noted are these: twice-weekly schedule.
Series [21] concerns INA-6 MM tumors. Description: SCID-hu model, INA-6 MM tumors, serum shIL-6R. The format is in vivo, mice. The note with it: 10 mg/kg.
For series [22], the target named is T1, USP7. In words: Ubiquitin-linked K48 chain cleavage assay, USP7. The conditions noted are these: Ub7 and K48-linked chains. It counts as biochemical.
Series [23] concerns HCT116 USP7^−/− cells. In words: MTT viability, HCT116 USP7^−/−. It counts as cell-based, human. The conditions noted are these: HCT116 USP7^−/− versus WT.
The target in series [24] is UCHL3 (Homo sapiens, UniProt P15374). Description: DUB inhibition in cells. The format is cell-based. The note with it: Fig S1A.
Sequence of UCHL3 (P15374 whole entry): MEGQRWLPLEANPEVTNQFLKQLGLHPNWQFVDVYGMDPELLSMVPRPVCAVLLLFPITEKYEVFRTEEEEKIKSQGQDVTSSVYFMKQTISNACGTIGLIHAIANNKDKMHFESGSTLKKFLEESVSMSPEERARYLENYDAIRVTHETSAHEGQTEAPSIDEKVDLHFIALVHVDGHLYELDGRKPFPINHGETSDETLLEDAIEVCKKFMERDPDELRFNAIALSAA
Series [25] concerns U2OS cells. In words: IC50 in U2OS cells. The format is cell-based.
For series [26], the system named is ARP-1 MM tumors. In words: Human p53-null ARP-1 MM xenograft.
In series [27] the test system is HDM2. Description: HDM2 ubiquitylation. It counts as cell-based. The note with it: U2OS.
The test system of series [28] is ARP-1 MM cells. Description: Viability, p53-null ARP-1 MM cells. The format is cell-based, human. The note with it: p53-null ARP-1, 48 hr.
In series [29] the test system is HCT116 (WT) cells. In words: MTT viability, HCT116. The note with it: 24, 48, 72 hr. It counts as cell-based, human.
Series [30] relates to p53^−/−/MDM2^−/− MEFs. Description: Viability, p53^−/−/MDM2^−/− MEFs. It counts as cell-based, mouse. The conditions noted are these: 48 hr.
Series [31] has as its system other DUBs. In words: HA-UbVME probe labeling of other DUBs, HEK293T cells. The format is cell-based. The note with it: even at 40 μM.
Series [32] deals with T1, USP7. In words: HA-UbVME active site probe competition, HEK293T cells. The format is cell-based. The note with it: lysates from treated HEK293T cells; concentrations as low as.
For series [33], the system named is other DUBs or other families of cysteine proteases. Description: Ub-PLA2 / protease panel, selectivity. The format is biochemical. The note with it: read-out: EC50, other DUBs or other families of cysteine proteases; Fig 1D.
The subject of series [34] is HCT116 p53 (WT) and HCT116 p53^−/− cells. Description: Viability, HCT116 p53. The note with it: 72 hr. The format is cell-based, human.
For series [35], the system named is MM cell lines. Description: MM cell line viability. It counts as cell-based, human.
Series [36] concerns MM cells from bortezomib-resistant patients. In words: Viability of MM cells from bortezomib-resistant patients. The format is cell-based, human. The note with it: 12.5 nM, 48 hr, in 3 of 6 samples.
The mark [37] stands for this setting: 10 mg/kg IV twice weekly for 3 weeks.

Each structure is given as a SMILES string.

Sequence of USP5 (P45974 whole entry): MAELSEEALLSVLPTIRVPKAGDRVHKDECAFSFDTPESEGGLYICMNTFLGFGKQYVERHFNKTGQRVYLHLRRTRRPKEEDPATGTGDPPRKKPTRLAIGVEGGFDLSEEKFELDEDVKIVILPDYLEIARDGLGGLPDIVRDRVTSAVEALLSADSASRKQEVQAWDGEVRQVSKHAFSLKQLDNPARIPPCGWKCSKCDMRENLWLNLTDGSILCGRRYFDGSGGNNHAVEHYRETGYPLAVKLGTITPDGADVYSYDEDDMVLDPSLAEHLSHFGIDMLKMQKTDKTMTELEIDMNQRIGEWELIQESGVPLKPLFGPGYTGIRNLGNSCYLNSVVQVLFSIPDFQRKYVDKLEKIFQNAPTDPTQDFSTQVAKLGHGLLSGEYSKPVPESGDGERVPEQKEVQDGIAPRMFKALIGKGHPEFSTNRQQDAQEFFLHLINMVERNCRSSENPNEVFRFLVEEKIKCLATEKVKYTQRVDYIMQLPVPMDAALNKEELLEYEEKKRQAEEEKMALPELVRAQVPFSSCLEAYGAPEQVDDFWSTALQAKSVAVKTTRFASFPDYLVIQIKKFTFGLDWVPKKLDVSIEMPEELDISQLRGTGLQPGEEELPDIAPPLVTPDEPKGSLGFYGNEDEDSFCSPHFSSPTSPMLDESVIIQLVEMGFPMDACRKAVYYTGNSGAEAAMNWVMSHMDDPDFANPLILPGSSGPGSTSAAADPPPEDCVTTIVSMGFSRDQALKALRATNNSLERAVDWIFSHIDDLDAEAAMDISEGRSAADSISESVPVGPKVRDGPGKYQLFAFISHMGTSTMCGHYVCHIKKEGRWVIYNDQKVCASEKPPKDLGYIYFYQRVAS

Take `CC(=O)c1cc([N+](=O)[O-])c(Sc2cccc(Cl)c2Cl)s1` [P5091]: the IC50 in series [1] (ANBL-6.BR, 48 hr) turned out to be 9.85 µM; in series [2] (ANBL-6.WT, 48 hr), 6.83 µM; in series [12] it was 7.72 µM; in series [25] it was 15 µM; in series [30], 20.9 µM. Besides, the “IC50 ratio (ANBL-6.BR/ANBL-6.WT)” value in series [1] (p < 0.001) is “significantly less than bortezomib”. Moreover, the “Inhibition of USP5” value in series [3] is on record as “did not inhibit”. The “HDM2, HDMX, p53 and p21 protein levels” value in series [4] was “decreased HDM2 and HDMX, as well as upregulated p53 and p21 levels”. For the same compound, the “Inhibition of USP7 activity” value in [5] is above 50%. Besides, the “Viability of patient MM cells” value in series [6] is “dose-dependent decrease in the viability”. For the same compound, the “Percentage of viable cells” value in [7] (HDM2-siRNA, P5091 6.25 μM) was found to be 73.3%; in series [7] (HDM2-siRNA, P5091 12.5 μM), 19.2%; in [7] (scr-siRNA, P5091 6.25 μM) it was 47.2%; in [7] (scr-siRNA, P5091 12.5 μM), 8.6%. The “Effect of p53 depletion by siRNA on drug-induced decrease in viability” value in [8] is listed as “does not affect”. Further, in series [9], the “Effect of p21 silencing with siRNA on cytotoxicity” value is given as “attenuates P5091-induced cytotoxicity”. Moreover, the “Caspase-like (C-L) proteasome activity” value in [10] (25–50 μM) was “no effect”. Moreover, in series [10] (25–50 μM), the “Trypsin-like (T-L) proteasome activity” value is listed as “no effect”. Further, the “Chymotrypsin-like (CT-L) proteasome activity” value in series [10] is recorded as “no significant inhibition”. For the same compound, the EC50 in series [11] (read-out: EC50, deubiquitylating activity against USP7, Ub-PLA2 reporter assay) is 4.2 ± 0.9 µM; in [33], above 100 µM. Besides, the Survival entry in [13], in series [15] (setting [37]) and in series [26] (setting [37]) was “prolongs survival” each time. For the same compound, the values for the Tumor growth result in [13], in series [15] (setting [37]) and in series [26] (setting [37]) were “inhibits leukemic tumor growth”, “inhibits MM tumor growth” and “inhibits MM tumor growth”, respectively. Further, the “Apoptosis (Annexin V/PI)” value in [14] is “accumulation of cells in early (Ann V^+/PI^−) and late stage (Ann V^+/PI^+) apoptosis”. In addition, the “Proliferation in harvested tumors” value in series [15] (BrdU and Ki67 staining) was “decreases proliferation”. The Apoptotic tumor cells entry in series [15] (cleaved caspase-3, TUNEL, versus vehicle) is “increases the number of cleaved-caspase-3-, and TUNEL-positive apoptotic tumor cells”. Besides, the “Angiogenesis markers in tumors” value in [15] (immunostaining VEGFR2, PECAM1) was “decreases the number of VEGFR2- and PECAM1-positive cells”. For the same compound, the “USP7 activity in harvested tumors” value in series [15] (relative to control mice) is “inhibited USP7 activity”. Besides, in series [16], the “BMSCs-induced proliferation of MM.1S” value is reported as “inhibited BMSCs-induced proliferation”. Also, the Blood chemistry profile entry in [17] is “normal levels of bilirubin, hemoglobin, and creatinine”. For the same compound, in series [17], the Weight loss entry is recorded as “no significant weight loss”. Moreover, the “Cytotoxicity in HCT116 p21^−/− cells” value in [18] is reported as “significantly blocked”. Also, the “Inhibition of UCHL1” value in series [19] was “did not inhibit”. Further, the MTD dose in series [20] was found to be 20 mg/kg. The “Tumor growth (serum shIL-6R)” value in [21] is “inhibited tumor growth”. Besides, the “USP7-mediated cleavage of poly ubiquitin chains” value in [22] is on record as “inhibited in a dose-dependent manner”. The Cytotoxic activity result in [23] is reported as “marked reduction in P5091 cytotoxic activity”. Further, in [24], the “Inhibition of UCHL3” value is recorded as “did not inhibit”. For the same compound, the “USP7 activity in tumors” value in series [26] (compared with control mice, at 3 hr) is recorded as “marked inhibition of USP7 activity”. For the same compound, the HDM2 degradation entry in [27] (15 μM, versus CHX alone) is listed as “accelerates the degradation of HDM2”. Further, in [27] (HA-Ub transfected, 30 μM, 4 hr), the HDM2 ubiquitination result is listed as “markedly increases HDM2 ubiquitination”. Further, the figures for the Cell viability entry in series [28] and in series [29] were “decreases the viability” and “decreased the viability”, respectively. Also, in series [31], the “Labeling of other DUBs with Ub-VME” value was “No gross difference”. For the same compound, in series [32], the “Concentration inhibiting Ub-USP7 conjugate formation (HA-UbVME labeling)” value fell in the range of 5 to 10 µM. Moreover, the “Cytotoxicity in HCT116 p53 (WT) versus HCT116 p53^−/−” value in series [34] is on record as “equipotent cytotoxicity in both cell types”.

In the case of `CC(=O)c1cc([N+](=O)[O-])c(Sc2ccccc2)s1` [P22074], the “Effect on viability of MM cell lines” value in [35] is “no significant effect”. For the same compound, the figures for the “USP7 inhibitory activity (SAR)” value in series [11] and in series [11] (listed as 1) were “inactive” and “not active”, respectively.

For the compound `CC(C)C[C@H](NC(=O)[C@H](Cc1ccccc1)NC(=O)c1cnccn1)B(O)O` [bortezomib, reference compound], the IC50 stood at 0.0121 µM in series [1] (48 h) and 0.00232 µM in series [2] (48 h). For the same compound, in [10], the “Chymotrypsin-like (CT-L) proteasome activity” value is recorded as “blocks”. Moreover, the Decrease in viability in [36] is 10%–50%.

By IC50 is commonly meant the concentration needed to halve the response being measured. A lower IC50 goes with greater potency. Broadly, the EC50 is the concentration needed to bring the measured effect to its halfway point.
